Experimental data as given in patent US20240300977A1, “INHIBITORS OF DNA-DEPENDENT PROTEIN KINASE AND COMPOSITIONS AND USES THEREOF” (Intellia Therapeutics, Inc., priority 2021, published 2024).
“And” between values parts separate entries of the source, which are not always exact repeats. Equal entries are not always repeated.

Assays:
697 ALL cells (697-luc2) [1] = assay: WT1 TCR T cell mediated cytotoxicity, luciferase assay; format: cell-based, human; settings: WT1-T cells (HD1) engineered with inhibitor, 48h, duplicate values
Experimental: (§1) The ability of WT1-TCR T cells engineered from donors 007HD and 008HD to kill hematological cancer cells expressing natural levels of WT1 and release cytokines was evaluated. TCR KO cells generated as described above but without TRAC/AAV addition were used as a negative, non-killing control. Briefly, T cells were co-cultured with luciferase expressing 697 ALL cells (697-luc2), or K562-luc2 cells transduced to express HLA-A*02:01 (K5692-HLA-A*02:01-luc2) at various effector to target (E:T) ratios (2:1, 1:1, 0.5:1) in TCEM without the addition of IL-2, IL-7, or IL-15. […] After 24h of co-culture, supernatants from the 2:1 E:T ratio group were harvested and used in an MSD U/R-PLEX assay to quantify IL-2, TNFα, IFNγ, and Granzyme B following manufacturers protocol (Mesoscale Discovery). After 48h of co-culture luciferase activity was quantified using the Bright-GLO Luciferase Assay System (Promega) in relative luminescence units (RLU). Percent specific lysis was determined using the formula:
(§2) % Specific Lysis=100−((RLU[Experimental Well]/RLU[Target Only Well])*100)

[2] = system: K562-luc2 cells transduced to express HLA-A*02:01; assay: as above; format: cell-based, human; settings: WT1-T cells (HD1) engineered with inhibitor, K562-HLA-A*02:01, 48h, duplicate values
Experimental: as §1, §2

697 ALL cells (697-luc2) [3] = assay: Cytokine release by WT1 TCR T cells, MSD U/R-PLEX; format: cell-based, human; set-up: unit not given here; settings: 2:1 E:T, 24h supernatant, T cells engineered with inhibitor, duplicate values
Experimental: as §1, with “formula: […]” for “formula:”

[4] = system: K562-luc2 cells transduced to express HLA-A*02:01; assay: Cytokine release by WT1 TCR T cells, MSD U/R-PLEX; format: cell-based, human; set-up: unit not given here; settings: K562-HLA-A2.1, 2:1 E:T, 24h supernatant, T cells engineered with inhibitor, duplicate values
Experimental: as §1, with “formula: […]” for “formula:”

T cells [5] = assay: Off-target structural variation by UnIT; format: cell-based, human; settings: T cells from Example 12, day 8 post-editing; TRAC sgRNA G013006
From the text: (§3) On day 8 post-editing, T cells from Example 12 from the untreated, unedited, Compound 3 and Compound 4 guides samples were collected, spun down and the pellets were directly used as input material for gDNA isolation using “Zymo Quick DNA/RNA Mag Beads Kit” (Zymo Cat. R2131). The UnIT structural variant characterization assay was applied to these gDNA samples. High molecular weight genomic DNA is simultaneously fragmented and sequence-tagged (‘tagmented’) with the Tn5 transposase and an adapter with a partial Illumina P5 sequence and a 12 bp unique molecular identifier (UMI). Two sequential PCRs using a primer to P5 and hemi-nested gene specific primers (GSP) imparting the Illumina the P7 sequence to create two Illumina compatible NGS libraries per sample (Illumina, Ref 15033624). Sequencing across both directions of the CRISPR/Cas9 targeted cut site with the two libraries allows the inference and quantification of structural variants in DNA repair outcomes after genome editing. If the two fragments were aligned to different chromosomes, the SV was classified as an “inter-chromosomal translocation.” The magnitude of structural variation was shown in FIG. 9A and Table 18.

T cells [6] = assay: Insertion percent in T cells of Example 17; format: cell-based, human; settings: T cells from Example 12; FIG. 9B
From the text: as §3

TRAC = settings: human
TRBC = assay: Off-target site validation, rhAmpSeq; settings: gRNA G016239 targeting TRBC; of 92 off-target sites; with the named DNA-PKI or none
T cells [7] = assay: TRAC LNP editing and GFP insertion in activated T cells with DNA-PK inhibitors, flow cytometry; settings: day 5 post-edit; for Mean % CD3^−/GFP+ Cells (n = 3): GFP positive of the CD3 negative T cells; for Mean % CD3^− Cells (n = 3): TRAC LNP + GFP AAV

SMILES: Cc1cc2ncnn2cc1Nc1ncc2c(n1)n(C1CCC(F)(F)CC1)c(=O)n2C [Compound 3, 9-(4,4-difluorocyclohexyl)-7-methyl-2-((7-methyl-[1,2,4]triazolo[1,5-a]pyridin-6-yl)amino)-7,9-dihydro-8H-purin-8-one]
- Percent specific lysis (697 ALL cells (697-luc2) [1]; E:T 0.5, donor 007HD): 4.60% and 2.72%
- Percent specific lysis (697 ALL cells (697-luc2) [1]; E:T 0.5, donor 008HD): 63.10% and 72.62%
- Percent specific lysis (697 ALL cells (697-luc2) [1]; E:T 1, donor 007HD): 39.43% and 30.39%
- Percent specific lysis (697 ALL cells (697-luc2) [1]; E:T 1, donor 008HD): 95.29% and 94.31%
- Percent specific lysis (697 ALL cells (697-luc2) [1]; E:T 2, donor 007HD): 77.64% and 65.49%
- Percent specific lysis (697 ALL cells (697-luc2) [1]; E:T 2, donor 008HD): 98.98% and 98.97%
- Percent specific lysis ([2]; E:T 0.5, donor 007HD): 47.03% and 41.52%
- Percent specific lysis ([2]; E:T 0.5, donor 008HD): 72.45% and 71.77%
- Percent specific lysis ([2]; E:T 1, donor 007HD): 78.53% and 75.83%
- Percent specific lysis ([2]; E:T 1, donor 008HD): 98.67% and 99.08%
- Percent specific lysis ([2]; E:T 2, donor 007HD): 98.79% and 96.99%
- Percent specific lysis ([2]; E:T 2, donor 008HD): 99.96% and 99.84%
- Granzyme B (697 ALL cells (697-luc2) [3]; donor 007HD): 1441.06 and 1664.25
- IFN-gamma (697 ALL cells (697-luc2) [3]; donor 007HD): 923.97 and 977.71
- IL-2 (697 ALL cells (697-luc2) [3]; donor 007HD): 2.23 and 4.32
- TNF-alpha (697 ALL cells (697-luc2) [3]; donor 007HD): 5.29 and 3.46
- Granzyme B (697 ALL cells (697-luc2) [3]; donor 008HD): 1777.28 and 1609.68
- IFN-gamma (697 ALL cells (697-luc2) [3]; donor 008HD): 7169.43 and 6733.05
- IL-2 (697 ALL cells (697-luc2) [3]; donor 008HD): 8.1 and 7.14
- TNF-alpha (697 ALL cells (697-luc2) [3]; donor 008HD): 18.57 and 16.3
- Granzyme B ([4]; donor 007HD): 17178.54 and 20713.6
- IFN-gamma ([4]; donor 007HD): 41527.06 and 59686.42
- TNF-alpha ([4]; donor 007HD): 66.56 and 73.76
- Granzyme B ([4]; donor 008HD): 17134.42 and 18197.02
- IFN-gamma ([4]; donor 008HD): 200584.6 and 216197.4
- IL-2 ([4]; donor 008HD): 484.52 and 524.89
- TNF-alpha ([4]; donor 008HD): 302.06 and 324.18
- Unintended Structural Variance (Average) (T cells [5]): 1.30%
- Insertion Percent (Average) (T cells [6]): 68.35%
- Sites Validated (TRAC): 0
- Sites Validated (TRBC): 0
- Mean % CD3^−/GFP+ Cells (n = 3) (T cells [7]; compound 0.0625 uM): 75.50%
- Mean % CD3^− Cells (n = 3) (T cells [7]; compound 0.0625 uM): 50.73%
- Mean % CD3^−/GFP+ Cells (n = 3) (T cells [7]; compound 1 uM): 79.60%
- Mean % CD3^− Cells (n = 3) (T cells [7]; compound 1 uM): 58.90%
